Test results taken from publication PMC5316865, “Covalent assembly of nanoparticles as a peptidase-degradable platform for molecular MRI” (Nature Communications, 2017).
Peptide text beside a SMILES is read from it. * marks the point of attachment. Fmoc = O=C(OCC1c2ccccc2-c2ccccc21)*; Ahx = NCCCCCC(=O)O

Biological target: cathepsin L (Homo sapiens, UniProt P07711)
Details: 50 µM peptide, citrate buffer 0.1 M pH 5.5, 1 mM EDTA, 2 mM DTT, 37 °C, overnight reaction, product formation by HPLC
Protocol: Activity assay of peptides with cathepsin L.
The reaction mixture was analysed by HPLC to
detect the formation of products from the overnight reaction.
Degradation of non-fluorescent peptides by cathepsin L
A solution of cathepsin L (20 µg/mL, 24 units/L) in citrate buffer 0.1 M pH 5.5, 1 mM EDTA, 2 mM
DTT was preactivated at 25 °C for 15 minutes. A stock solution of peptide 4, 5, 6 or 7 (125 µL, 25 nmol,
0.20 mM in DMSO) was diluted in 365 µL of the assay buffer to a final concentration of 50 µM and pre-
incubated at 37 °C. 10 µL of pre-activated cathepsin L was then added to the peptide solution and
incubated with mild shaking at 37 °C. Aliquots of 100 µL were withdrawn at 0 min, 1 hour and overnight.
Samples were flash-frozen on liquid nitrogen and were heated at 100 °C for 120 seconds prior to the

Sequence of cathepsin L (P07711 114-333, species assumed): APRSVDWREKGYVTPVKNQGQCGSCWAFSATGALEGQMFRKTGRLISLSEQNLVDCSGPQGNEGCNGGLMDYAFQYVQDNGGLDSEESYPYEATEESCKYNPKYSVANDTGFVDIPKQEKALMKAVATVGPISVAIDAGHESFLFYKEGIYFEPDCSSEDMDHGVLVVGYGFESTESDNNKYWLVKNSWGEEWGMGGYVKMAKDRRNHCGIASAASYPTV

CC(C)[C@H](NC(=O)[C@H](Cc1ccccc1)NC(=O)CCCCCNC(=O)CCCCCNC(=O)OCC1c2ccccc2-c2ccccc21)C(=O)N[C@@H](CCCNC(=N)N)C(=O)NCC(=O)N[C@@H](C)C(=O)NCC(=O)N[C@@H](CCC(=O)O)C(N)=O [Peptide 3, Fmoc-Ahx-Ahx-FVRGAGE] ({Fmoc-Ahx-Ahx}-FVRGAGE-NH2) was tested, and the “Activity assay of peptides with cathepsin L” value was “active”.
